Where two headings read alike, the source gives them in different places.
Tests used:
[1] = Comparative plasma PK of Compound 1 versus Int 1-4 in male CD-1 mice (study b); format: in vivo; settings: male, CD-1, mouse, iv; for Cmax: read-out: Cmax; for Tmax: read-out: Tmax
Protocol: Objectives: to compare the plasma pharmacokinetics and stability of Compound 1 with its non-phosphorylated SMDC analog (Int 1-4) and in plasma following a single intravenous infusion administration of Compound 1 at 11.6 mg/kg and 23.2 mg/kg with Int 1-4 (formulation F1 & F2) at 10.0 mg/kg in male CD-1 mice
PK measurements: compare PK parameters C0, CL, Vdss, Cmax, tmax, t1/2, AUC(0-t), AUC(0-inf), MRT(0-t), MRT(0-inf) for Compound 1 and Int 1-4

[2] = Int 1-4 and gemcitabine comparative PK in male cynomolgus monkey (study g); format: in vivo; settings: for AUC(0-t) / C0 / clearance / half-life / AUC(0-inf) / MRT inf / MRT last / Vd: plasma, male cynomolgus monkey; for AUC(0-inf): read-out: AUC0-inf; for MRT inf: read-out: MRT0-inf; for MRT last: read-out: MRT0-last; for Vd: read-out: Vdss
Protocol: Objectives: to compare the plasma pharmacokinetics and stability of Int 1-4 versus gemcitabine in plasma following single intravenous infusion administration of Int 1-4 at 5 mg/kg and 10 mg/kg with equimolar gemcitabine at 2.65 mg/kg and 5.29 mg/kg in male cynomolgous monkeys
PK measurements: compare PK parameters C0, CL, Vdss, Cmax, tmax, t1/2, AUC(0-t), AUC(0-inf), MRT(0-t), MRT(0-inf) for Int 1-4 with gemcitabine

[3] = Compound 1 and gemcitabine plasma PK in the male cynomolgus monkey (study h); format: in vivo; settings: plasma, after iv Compound 1 5 mg/kg
Protocol: Objectives: to compare the plasma pharmacokinetics and stability of the Compound 1 with Int 1-4 and in plasma following a single intravenous infusion administration of Compound 1 at 5 mg/kg and 10 mg/kg with equimolar gemcitabine at 2.28 mg/kg in male cynomolgous monkeys.
PK measurements: compare PK parameters C0, CL, Vdss, Cmax, tmax, t1/2, AUC(0-t), AUC(0-inf), MRT(0-t), MRT(0-inf) for Compound 1 and Int 1-4 with gemcitabine.

[4] = Comparative PK of Int 1-4 versus gemcitabine in rat plasma (study i); format: in vivo, Sprague-Dawley rats; settings: Sprague-Dawley rat
Source text: PK measurements: compare PK parameters C0, CL, Vdss, Cmax, tmax, t1/2, AUC(0-t), AUC(0-inf), MRT(0-t), MRT(0-inf) for Int 1-4 and gemcitabine.

[5] = Int 1-4 dog plasma PK (study j); format: in vivo; settings: male beagle dog; for AUC(0-inf): read-out: AUC0-inf; for MRT inf: read-out: MRT0-inf; for MRT last: read-out: MRT0-last; for Vd: read-out: Vdss
Protocol: Objectives: to compare the plasma pharmacokinetics and stability of Int 1-4 in plasma following single intravenous infusion administration of t 1-4 at 10 mg/kg and 20 mg/kg in the male Beagle dog.

[6] = Comparative dog plasma PK of Int 1-4 versus gemcitabine (study k); format: in vivo; settings: male beagle dog; for AUC(0-inf): read-out: AUC0-inf; for MRT inf: read-out: MRT0-inf; for MRT last: read-out: MRT0-last; for Vd: read-out: Vdss
Protocol: Objectives: to compare the plasma pharmacokinetics and stability of Int-4 in plasma following single intravenous infusion administration of Int 1-4 at 5 mg/kg and 10 mg/kg versus gemcitabine at 5 mg/kg in the male Beagle dog

[7] = 10 mg/kg, after iv Int 1-4 10.0 mg/kg, Formulation 1
[8] = 10 mg/kg, after iv Int 1-4 10.0 mg/kg, Formulation 2
[9] = 11.6 mg/kg, after iv Compound 1 11.6 mg/kg
[10] = 23.2 mg/kg, after iv Compound 1 23.2 mg/kg
[11] = after iv Int 1-4 5 mg/kg (study g)
[12] = after iv Int 1-4 10 mg/kg (study g)
[13] = plasma, after iv Int 1-4 10.0 mg/kg
[14] = after iv Int 1-4 10 mg/kg (study j)
[15] = after iv Int 1-4 20 mg/kg (study j)
[16] = after iv Int 1-4 5 mg/kg (study k)
[17] = after iv Int 1-4 10 mg/kg (study k)

COc1cc(OC)c2oc(COC(=O)Nc3ccn([C@@H]4O[C@H](CO)[C@@H](O)C4(F)F)c(=O)n3)cc2c1 [Int 1-4, (5,7-di(methoxy)benzofuran-2-yl)methyl (1-((2R,4R,5R)-3,3-difluoro-4-hydroxy-5-(hydroxymethyl)tetrahydrofuran-2-yl)-2-oxo-1,2-dihydropyrimidin-4-yl)carbamate]
AUC(0-t) [1, 7]: 3.62 µg·h/mL
C0 [1, 7]: 33.8 µg/mL
clearance [1, 7]: 2.9 L/h/kg
half-life [1, 7]: 70.8 min
AUC(0-inf) ([1]; 10 mg/kg, after iv Int 1-4 10.0 mg/kg, Formulation 1, read-out: AUC0-inf): 3.63 µg·h/mL
MRT inf ([1]; 10 mg/kg, after iv Int 1-4 10.0 mg/kg, Formulation 1, read-out: MRT0-inf): 45.4 min
MRT last ([1]; 10 mg/kg, after iv Int 1-4 10.0 mg/kg, Formulation 1, read-out: MRT0-last): 43.4 min
Vd ([1]; 10 mg/kg, after iv Int 1-4 10.0 mg/kg, Formulation 1, read-out: Vdss): 2.01 L/kg
AUC(0-t) [1, 8]: 4.21 µg·h/mL
C0 [1, 8]: 43 µg/mL
clearance [1, 8]: 2.33 L/h/kg
half-life [1, 8]: 109 min
AUC(0-inf) ([1]; 10 mg/kg, after iv Int 1-4 10.0 mg/kg, Formulation 2, read-out: AUC0-inf): 4.29 µg·h/mL
MRT inf ([1]; 10 mg/kg, after iv Int 1-4 10.0 mg/kg, Formulation 2, read-out: MRT0-inf): 59 min
MRT last ([1]; 10 mg/kg, after iv Int 1-4 10.0 mg/kg, Formulation 2, read-out: MRT0-last): 47.8 min
Vd ([1]; 10 mg/kg, after iv Int 1-4 10.0 mg/kg, Formulation 2, read-out: Vdss): 2.3 L/kg
AUC(0-t) [1, 9]: 2.57 µg·h/mL
half-life [1, 9]: 58.4 min
AUC(0-inf) ([1]; 11.6 mg/kg, after iv Compound 1 11.6 mg/kg, read-out: AUC0-inf): 2.61 µg·h/mL
Cmax [1, 9]: 20 µg/mL
MRT inf ([1]; 11.6 mg/kg, after iv Compound 1 11.6 mg/kg, read-out: MRT0-inf): 40.4 min
MRT last ([1]; 11.6 mg/kg, after iv Compound 1 11.6 mg/kg, read-out: MRT0-last): 33.2 min
Tmax [1, 9]: 1.5 min
AUC(0-t) [1, 10]: 6.37 µg·h/mL
half-life [1, 10]: 55.8 min
AUC(0-inf) ([1]; 23.2 mg/kg, after iv Compound 1 23.2 mg/kg, read-out: AUC0-inf): 6.38 µg·h/mL
Cmax [1, 10]: 29.9 µg/mL
MRT inf ([1]; 23.2 mg/kg, after iv Compound 1 23.2 mg/kg, read-out: MRT0-inf): 47.6 min
MRT last ([1]; 23.2 mg/kg, after iv Compound 1 23.2 mg/kg, read-out: MRT0-last): 46.7 min
Tmax [1, 10]: 1.5 min
fold longer half-life than gemcitabine ([2]; male cynomolgus monkey plasma): ~50 fold
AUC(0-t) [2, 11]: 5.95 µg·h/mL
C0 [2, 11]: 99.7 µg/mL
clearance [2, 11]: 0.876 L/h/kg
half-life [2, 11]: 45 min
AUC(0-inf) [2, 11]: 5.96 µg·h/mL
MRT inf [2, 11]: 19.8 min
MRT last [2, 11]: 19.2 min
Vd [2, 11]: 0.287 L/kg
AUC(0-t) [2, 12]: 11.9 µg·h/mL
C0 [2, 12]: 146 µg/mL
clearance [2, 12]: 0.9 L/h/kg
half-life [2, 12]: 59.4 min
AUC(0-inf) [2, 12]: 11.9 µg·h/mL
MRT inf [2, 12]: 23.4 min
MRT last [2, 12]: 22.8 min
Vd [2, 12]: 0.349 L/kg
AUC(0-t) [3]: 4.38 µg·h/mL
half-life [3]: 45.6 min
AUC(0-inf) ([3]; read-out: AUC0-inf): 4.4 µg·h/mL
MRT inf ([3]; read-out: MRT0-inf): 22.2 min
MRT last ([3]; read-out: MRT0-last): 21.6 min
stability in the rat (based on Cmax and AUC of free gemcitabine in plasma) ([4]; iv Int 1-4): unstable
half-life ([4]; Sprague-Dawley, rat, plasma, iv, 10 mg/kg, plasma, after iv Int 1-4 10.0 mg/kg): 19.1 min
AUC0-inf/AUC0-last [4, 13]: 101%
AUC(0-inf) [4, 13]: 2.01 µg·h/mL
AUC(0-t) [4, 13]: 1.99 µg·h/mL
C0 [4, 13]: 29.4 µg/mL
clearance [4, 13]: 4.94 L/h/kg
MRT inf ([4]; plasma, after iv Int 1-4 10.0 mg/kg, read-out: MRT0-inf): 11.1 min
MRT last ([4]; plasma, after iv Int 1-4 10.0 mg/kg, read-out: MRT0-last): 10.3 min
Vd ([4]; plasma, after iv Int 1-4 10.0 mg/kg, read-out: Vdss): 0.905 L/kg
AUC(0-t) [5, 14]: 4.73 µg·h/mL
C0 [5, 14]: 60.5 µg/mL
clearance [5, 14]: 2.11 L/h/kg
half-life [5, 14]: 32.4 min
AUC(0-inf) [5, 14]: 4.74 µg·h/mL
MRT inf [5, 14]: 14.4 min
MRT last [5, 14]: 13.8 min
Vd [5, 14]: 0.504 L/kg
AUC(0-t) [5, 15]: 7.93 µg·h/mL
C0 [5, 15]: 90.9 µg/mL
clearance [5, 15]: 2.6 L/h/kg
half-life [5, 15]: 31.2 min
AUC(0-inf) [5, 15]: 7.94 µg·h/mL
MRT inf [5, 15]: 13.8 min
MRT last [5, 15]: 13.2 min
Vd [5, 15]: 0.58 L/kg
AUC(0-t) [6, 16]: 2.7 µg·h/mL
C0 [6, 16]: 40 µg/mL
clearance [6, 16]: 1.85 L/h/kg
half-life [6, 16]: 15 min
AUC(0-inf) [6, 16]: 2.73 µg·h/mL
Cmax ([6]; after iv Int 1-4 5 mg/kg (study k), read-out: Cmax): 30.5 µg/mL
MRT inf [6, 16]: 7.2 min
MRT last [6, 16]: 6.6 min
Vd [6, 16]: 0.23 L/kg
AUC(0-t) [6, 17]: 7.93 µg·h/mL
C0 [6, 17]: 90.9 µg/mL
clearance [6, 17]: 2.6 L/h/kg
half-life [6, 17]: 31.2 min
AUC(0-inf) [6, 17]: 7.94 µg·h/mL
MRT inf [6, 17]: 13.8 min
MRT last [6, 17]: 13.2 min
Vd [6, 17]: 0.58 L/kg

Reference: US11760773B2, “Small molecule drug conjugates of gemcitabine monophosphate” (MaveriX Oncology, Inc., priority 2018, dated 2023)
